Results on one compound are retold here after patent publication EP0960886B1, “Peptide T and related peptides in the treatment of inflammation, including multiple sclerosis” (priority 1992, dated 1993).

In series [1] the test system is LPS. Nature of the series: LPS-induced inflammation in mice (Example 5). Type of series: in vivo, balb/c mice. Further details: key: indicated on a scale of (-) to (+++); indicated on a scale of (-) to (+++); indicated on a scale of (-) to (+++). Here is the method:
Normal balb/c mice (female, 12 weeks) were administered LPS (250 µg, E. coli K-235, Sigma cat. no. L-2018) at time zero. One group of mice (50 animals) were then treated at 30 minutes intervals by i.p. injections of bovine serum albumin (BSA) (Sigma cat. no. 6793) dissolved in pyrogen-free, sterile, isotonic water (2.5 mg BSA per animal per injection, each injection containing 100 µl).
The second group of mice (50 animals) were treated at 30 minutes intervals by i.p. injections of Peptide T (Carlbiotech A/S batch 109401) dissolved in pyrogen-free, sterile, isotonic water (2.5 mg Peptide T per animal per injection, each injection 100 µl).
Glucose levels were determined on blood samples after 3 hours. Subjective parameters such as secretion from the eye, diarrhoea and general well being are indicated on a scale of (-) to (+++).

The subject of series [2] is p56^lck. Nature of the series: lck specific tyrosine kinase assay (autophosphorylation) in PBL blasts (Example 10). Type of series: cell-based. Further details: key: ++++: highly active; +: slightly active. The note with it: Unstimulated PBL blasts; Peptide T 10^-9 M for 2 hours; without P.T. +++. The method, then: PBL (peripheral blood leukocyte) blasts were prepared by incubating PBMC at 37°C with PHA (10 µg/ml) in RPMI + 10% FBS for 48 hours followed by addition of interleukin-2 and incubation for a subsequent 96 hours. Cells were washed free of IL-2 and incubated for 24 hours then washed free of FBS and incubated for 24 hours. PBL blasts remained either […] or were. treated with OKT4A (anti-CD4) at 10 µg/ml for 1 hour followed by rat anti-mouse Ig at 5 µg/ml for 5 minutes to enhance lck activity. PBL blasts were pretreated with Peptide T (10^-9 M) for 2 hours, then washed extensively before anti-CD4 stimulation. Following immunoprecipitation with anti-lck-Protein A conjugates and incubation (37°C, 10 minutes) with ^32P-ATP, p56^lck autophosphorylation was determined by autoradiography and used as a measure of p56^lck activity.
Peptide T will inhibit the PHA-induced activation and anti-CD4 dependent enhancement of p56^lck activity as we have determined (Table V) by an lck specific tyrosine kinase assay. p56^lck is a CD4 associated tyrosine kinase involved in T cell activation and transmembrane signalling (Janeway C.A. Ann. Rev. Immunol. 10 645-674 (1992)). […]

The subject of series [3] is TNFα. Nature of the series: Production of TNFα by Con A stimulated PBMC, radioimmune assay (Example 12). Type of series: cell-based, human. Here is the method:
Production of Tumour Necrosis Factor α (TNFα): 5x10^6 PBMC/ml were incubated in the presence of Con A (6.25µg/ml) for 48 hours in a humid atmosphere, 5% CO2, 37°C. Peptide T (10^-9M) was added at t=0 and 24 hours. At the end of incubation, SEPHADEX™ G25 (Pharmacia) was added (10mg/ml) and incubated for 10 minutes to remove mitogen. PBMC and SEPHADEX were pelleted by centrifugation and the supernatant tested for levels of TNFα using a TNFα radioimmune assay kit from Amersham. Samples were analysed in duplicate.

A short description of series [4]: Pharmacokinetics of Peptide T in vivo. As to conditions: following administration in vivo.
For series [5], the system named is PBMC. Type of series: cell-based, human.
In series [6] the test system is Molt-4 cells. Nature of the series: PBMC mediated killing of Molt-4 cells. Type of series: cell-based, human. The note with it: Peptide T added on the first day of a four day culture. From the text: When PBMC are mixed with allogeneic Molt-4 cells the growth of Molt-4 is inhibited (Figure 6). Alloreactive PBMC recognise Molt-4 as foreign and generate cytotoxic effector cells that kill Molt-4. Molt-4 is not a cytotoxic cell line and can not generate alloreactive effector cells. […] It is not possible to distinguish growth of alloreactive T cells from the growth of Molt-4 survivors since neither the growth of alloreactive T cells (Figure 5) nor the growth of Molt-4 (Table IX) would be affected by Peptide T.

The test system of series [7] is Neopterin. Nature of the series: Serum neopterin by RIA in patients with HIV disease. As to conditions: one line per patient with HIV disease. Type of series: in vivo, human. The source says:
However, neopterin levels were elevated prior to Peptide T administration whereas serum IL-1 levels were normal.

Series [8] concerns HIV. The note with it: 100 nM Peptide T; cited from earlier work.
Series [9] has as its system human monocyte chemotaxis. The note with it: cited from earlier work.
Where [10] appears, read: t3hrs, LPS 250 µg, 2.5 mg Peptide T i.p. at 30 minutes intervals.

Where “and” joins values, the source holds several entries; their conditions need not be identical. Equal entries are not always repeated. Bounds are passed on as bounds.

`C[C@@H](N)C(=O)N[C@@H](CO)C(=O)N[C@H](C(=O)N[C@H](C(=O)N[C@H](C(=O)N[C@@H](CC(N)=O)C(=O)N[C@@H](Cc1ccc(O)cc1)C(=O)N[C@H](C(N)=O)[C@@H](C)O)[C@@H](C)O)[C@@H](C)O)[C@@H](C)O` [Peptide T, D-Ala-Ser-Thr-Thr-Thr-Asn-Tyr-Thr-NH2]: the values for the General well being entry in series [1] (t0 (baseline)) and in [1] (setting [10]) were “-” and “+”, respectively. In addition, the Secretion from eyes entry in [1] (t0 (baseline)) is “-”; in [1] (setting [10]) it was “+”. For the same compound, the Diarrhoea result is reported as “-” in [1] (t0 (baseline), LPS 250 µg at time zero) and “+” in series [1] (setting [10]). In series [2], the “activity of p56^lck” value is “+”. For the same compound, the TNFα in [3] (PBMC+Con A (6.25µg/ml)+Peptide T 10^-9M, 48 hours, PBMC+Con A alone 69.0 ± 6.9) is reported as 47.0 ± 0.1 fmol/100ul; in [3] (PBMC+RPMI+Peptide T, no Con A, 48 hours) it was less than 1 fmol/100ul; in [3] (RPMI+Peptide T (no cells), Peptide T 10^-9M) it was less than 1 fmol/100ul. This compound also returned a peak plasma concentrations in series [4] of 55 nM. The “lymphocytes responding to recall antigen (MMR), antibodies to CD3 or the superantigens SEB and TSST-1” value in [5] is “negligible effects”. Moreover, in series [6], the “PBMC-mediated inhibition of Molt-4 proliferation” value is “remains unaffected”. Further, the “[Neopterin]” value in series [7] (Pre-Peptide T (baseline)) is 47.3 ± 0.8 nM and 27.8 ± 0.8 nM and 13.15 ± 2.85 nM and 52.0 ± 4.0 nM; in series [7] (post-Peptide T), 32.5 ± 3.5 nM and 19.75 ± 0.25 nM and 8.9 ± 0.6 nM and 16.85 ± 0.05 nM. In addition, the “reduction of reverse transcriptase” value in series [8] was “ninefold reduction”. The “agonist activity on human monocyte chemotaxis” value in [9] is listed as “potent agonists”.
